In patent US7759375B2, “Epothilones C, D, E, and F, preparation and compositions” (priority 1996, dated 2010):
Converted amounts (≈) assume the structure as drawn. Where two headings read alike, the source gives them in different places.

Experiments:
[1] = molecular target: T1, purified tubulin from pigs' brain (Sus scrofa, UniProt P02554); type: biochemical, pig; conditions: 0.9 mg of tubulin/ml, 1 μM sample concentration; for Time up to the half-maximal polymerization, Agent [%] (relative activity in % of the control): control = 100, lowest values indicate the best activity; for Time up to the half-maximal polymerization of the control, Agent [s]: average of experiments w-z, control 190 s; for Time up to the half-maximal polymerization of the control, measurement w: independent experiment w; for Time up to the half-maximal polymerization of the control, measurement x: independent experiment x; for Time up to the half-maximal polymerization of the control, measurement y: independent experiment y; for Time up to the half-maximal polymerization of the control, measurement z: independent experiment z
T1 construct: purified tubulin from pigs' brain; from tissue; host or cells: pig brain
T1 sequence (P02554 whole entry): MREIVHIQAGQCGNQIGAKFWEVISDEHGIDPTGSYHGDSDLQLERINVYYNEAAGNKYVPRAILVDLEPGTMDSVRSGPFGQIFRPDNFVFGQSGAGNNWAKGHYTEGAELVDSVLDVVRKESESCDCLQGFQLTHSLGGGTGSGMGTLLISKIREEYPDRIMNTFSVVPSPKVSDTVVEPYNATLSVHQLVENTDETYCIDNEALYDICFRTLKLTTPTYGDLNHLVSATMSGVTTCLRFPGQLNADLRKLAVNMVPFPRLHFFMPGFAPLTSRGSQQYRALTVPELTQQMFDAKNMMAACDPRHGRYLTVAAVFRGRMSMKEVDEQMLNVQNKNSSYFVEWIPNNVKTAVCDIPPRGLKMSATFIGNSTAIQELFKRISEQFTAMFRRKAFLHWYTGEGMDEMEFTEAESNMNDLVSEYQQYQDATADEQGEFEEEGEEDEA
T1 sequence (P02550 whole entry partner): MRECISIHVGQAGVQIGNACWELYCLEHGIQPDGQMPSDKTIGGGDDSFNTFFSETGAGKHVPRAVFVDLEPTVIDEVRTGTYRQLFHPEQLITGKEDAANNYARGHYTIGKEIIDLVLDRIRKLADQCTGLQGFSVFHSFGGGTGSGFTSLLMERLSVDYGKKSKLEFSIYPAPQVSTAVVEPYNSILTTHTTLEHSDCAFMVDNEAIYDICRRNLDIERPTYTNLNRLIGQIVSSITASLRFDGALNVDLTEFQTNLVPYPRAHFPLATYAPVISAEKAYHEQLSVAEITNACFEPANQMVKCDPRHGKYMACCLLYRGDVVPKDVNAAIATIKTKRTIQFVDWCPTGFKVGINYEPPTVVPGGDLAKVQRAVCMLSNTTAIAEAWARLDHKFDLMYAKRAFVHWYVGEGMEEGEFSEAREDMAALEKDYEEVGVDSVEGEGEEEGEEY
Procedure: (§1) The epothilones according to the invention were tested with cell cultures (Table 2) and for promotion of polymerization (Table 3).
The polymerization test is an in vitro test using purified tubulin from pigs' brain. Evaluation is carried out photometrically.

HL-60 (leukaemia) = assay: Growth inhibition in cell culture, HL-60; type: cell-based, human
Procedure: as §1

[2] = test system: A-549 (carcinoma of the lung); assay: Growth inhibition in cell culture, A-549; type: cell-based, human
Procedure: as §1

Mouse fibroblasts L 929 = assay: Growth inhibition in cell culture, mouse fibroblasts L929; type: cell-based
Procedure: as §1

U-937 (lymphoma) = assay: Growth inhibition in cell culture, U-937; type: cell-based, human
Procedure: as §1

[3] = test system: KB-3.1 (carcinoma of the cervix); assay: Growth inhibition in cell culture, KB-3.1; type: cell-based, human
Procedure: as §1

[4] = test system: KB-VI (carcinoma of the cervix multires); assay: Growth inhibition in cell culture, KB-VI; type: cell-based, human
Procedure: as §1

K-562 (leukaemia) = assay: Growth inhibition in cell culture, K-562; type: cell-based, human
Procedure: as §1

[5] = test system: A-498 (carcinoma of the kidney); assay: Growth inhibition in cell culture, A-498; type: cell-based, human
Procedure: as §1

[6] = KB-3.1 (carcinoma of the cervix)
[7] = KB-VI (carcinoma of the cervix multires)
[8] = A-498 (carcinoma of the kidney)

SMILES | Time up to the half-maximal polymerization, Agent [%] (relative activity in % of the control) [1] | Time up to the half-maximal polymerization of the control, Agent [s] [1] | Time up to the half-maximal polymerization of the control, measurement w [1] | Time up to the half-maximal polymerization of the control, measurement x [1] | Time up to the half-maximal polymerization of the control, measurement y [1] | Time up to the half-maximal polymerization of the control, measurement z [1] | IC-50 (HL-60 (leukaemia); HL-60 (leukaemia)) | IC-50 ([2]; A-549 (carcinoma of the lung)) | IC-50 (Mouse fibroblasts L 929; Mouse fibroblasts L 929) | IC-50 (U-937 (lymphoma); U-937 (lymphoma)) | IC-50 [3, 6] | IC-50 [4, 7] | IC-50 (K-562 (leukaemia); K-562 (leukaemia)) | IC-50 [5, 8] | IC-50 [5] | IC-50 (HL-60 (leukaemia)) | IC-50 [2] | IC-50 (Mouse fibroblasts L 929) | IC-50 (U-937 (lymphoma)) | IC-50 [3] | further results
C/C(=C\c1csc(C)n1)[C@@H]1C[C@@H]2O[C@@H]2CCC[C@H](C)[C@H](O)[C@@H](C)C(=O)C(C)(C)[C@@H](O)CC(=O)O1 [Epothilone A, epothilone A, reference compound] | 39% | 74 s | 95 s | 60 s | 70 s | 70 s | 0.2 ng/mL | 0.7 ng/mL | 4 ng/mL | 0.2 ng/mL | 1 ng/mL | 0.3 ng/mL | 0.3 ng/mL | – | – | – | – | – | – | – | IC50 (Mouse fibroblasts L 929; Mouse fibroblasts, L929, concentration which reduces the growth by 50%): 4 ng/mL (≈ 8.1 nM); IC50 ([3]; HeLa KB-3.1 (human), concentration which reduces the growth by 50%): 1 ng/mL (≈ 2.03 nM)
C/C(=C\c1csc(C)n1)[C@@H]1C[C@@H]2O[C@]2(C)CCC[C@H](C)[C@H](O)[C@@H](C)C(=O)C(C)(C)[C@@H](O)CC(=O)O1 [Epothilone B, epothilone B, reference compound] | 14% | 26 s | – | 23 s | 25 s | 30 s | 0.2 ng/mL | 0.1 ng/mL | 1 ng/mL | 0.2 ng/mL | 0.6 ng/mL | 0.3 ng/mL | 0.3 ng/mL | 1.5 ng/mL | – | – | – | – | – | – | –
C/C(=C\c1csc(C)n1)[C@@H]1C/C=C\CCC[C@H](C)[C@H](O)[C@@H](C)C(=O)C(C)(C)[C@@H](O)CC(=O)O1 [Epothilone C] | 49% | 94 s | 125 s | 76 s | 95 s | 80 s | 10 ng/mL | 30 ng/mL | 100 ng/mL | 10 ng/mL | 20 ng/mL | 15 ng/mL | 20 ng/mL | 150 ng/mL | – | – | – | – | – | – | –
C/C1=C/C[C@@H](/C(C)=C/c2csc(C)n2)OC(=O)C[C@H](O)C(C)(C)C(=O)[C@H](C)[C@@H](O)[C@@H](C)CCC1 [Epothilone D] | 56% | 106 s | 125 s | 73 s | 120 s | – | 3 ng/mL | 10 ng/mL | 20 ng/mL | 3 ng/mL | 12 ng/mL | 3 ng/mL | 10 ng/mL | 20 ng/mL | – | – | – | – | – | – | –
C/C(=C\c1csc(CO)n1)[C@@H]1C[C@@H]2O[C@@H]2CCC[C@H](C)[C@H](O)[C@@H](C)C(=O)C(C)(C)[C@@H](O)CC(=O)O1 [Epothilone E] | – | – | – | – | – | – | – | – | – | – | – | – | – | – | 20 ng/mL | 1 ng/mL | 3 ng/mL | 20 ng/mL | 1 ng/mL | 5 ng/mL | IC50 (Mouse fibroblasts L 929): 20 ng/mL (≈ 39.2 nM); IC50 [3]: 5 ng/mL (≈ 9.81 nM); IC-50 [4]: 5 ng/mL; IC-50 (K-562 (leukaemia)): 2 ng/mL
C/C(=C\c1csc(CO)n1)[C@@H]1C[C@@H]2O[C@]2(C)CCC[C@H](C)[C@H](O)[C@@H](C)C(=O)C(C)(C)[C@@H](O)CC(=O)O1 [Epothilone F] | – | – | – | – | – | – | – | – | – | – | – | – | – | – | 3 ng/mL | 0.3 ng/mL | 0.1 ng/mL | 1.5 ng/mL | 0.2 ng/mL | 0.5 ng/mL | IC-50 [4]: 0.6 ng/mL; IC-50 (K-562 (leukaemia)): 0.5 ng/mL
